Experiment [1] has as its target Plasmepsin II (Plasmodium falciparum, UniProt P46925). In words: Binding affinity towards plasmepsin-2 in Plasmodium falciparum.
Experiment [2] concerns the target Cathepsin D (Homo sapiens, UniProt P07339). In words: Binding affinity towards human cathepsin D.
Experiment [3] addresses T1, Adenosine receptor A1 (Homo sapiens, UniProt P30542).
T1 sequence (P30542 whole entry): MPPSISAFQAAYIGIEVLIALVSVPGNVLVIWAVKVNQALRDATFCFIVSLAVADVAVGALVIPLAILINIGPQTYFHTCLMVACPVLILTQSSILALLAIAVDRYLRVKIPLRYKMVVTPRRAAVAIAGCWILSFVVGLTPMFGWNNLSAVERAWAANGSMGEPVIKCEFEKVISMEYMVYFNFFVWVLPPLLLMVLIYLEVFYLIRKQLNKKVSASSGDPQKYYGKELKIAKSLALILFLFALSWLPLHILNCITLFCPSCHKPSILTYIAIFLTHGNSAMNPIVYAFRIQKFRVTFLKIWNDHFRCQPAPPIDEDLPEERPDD
Nature of the experiment: Binding affinity at adenosine A1 receptor.

Experimental findings from ChEMBL document CHEMBL1148458, “Incorporating molecular shape into the alignment-free Grid-Independent Descriptors” (J Med Chem, 2004) are described below.

Sequence of Cathepsin D (P07339 65-162 limits assumed): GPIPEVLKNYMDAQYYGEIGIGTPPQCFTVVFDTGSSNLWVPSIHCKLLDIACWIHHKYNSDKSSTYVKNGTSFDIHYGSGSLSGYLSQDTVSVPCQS
Sequence of Cathepsin D (P07339 169-412 limits assumed): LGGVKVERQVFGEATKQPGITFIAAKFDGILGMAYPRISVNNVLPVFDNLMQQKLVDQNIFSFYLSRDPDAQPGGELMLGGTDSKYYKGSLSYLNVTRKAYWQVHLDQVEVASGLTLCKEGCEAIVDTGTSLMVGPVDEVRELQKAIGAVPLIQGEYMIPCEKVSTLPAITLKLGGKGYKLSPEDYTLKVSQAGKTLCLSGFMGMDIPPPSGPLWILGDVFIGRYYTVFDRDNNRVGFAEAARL
Sequence of Plasmepsin II (P46925 whole entry): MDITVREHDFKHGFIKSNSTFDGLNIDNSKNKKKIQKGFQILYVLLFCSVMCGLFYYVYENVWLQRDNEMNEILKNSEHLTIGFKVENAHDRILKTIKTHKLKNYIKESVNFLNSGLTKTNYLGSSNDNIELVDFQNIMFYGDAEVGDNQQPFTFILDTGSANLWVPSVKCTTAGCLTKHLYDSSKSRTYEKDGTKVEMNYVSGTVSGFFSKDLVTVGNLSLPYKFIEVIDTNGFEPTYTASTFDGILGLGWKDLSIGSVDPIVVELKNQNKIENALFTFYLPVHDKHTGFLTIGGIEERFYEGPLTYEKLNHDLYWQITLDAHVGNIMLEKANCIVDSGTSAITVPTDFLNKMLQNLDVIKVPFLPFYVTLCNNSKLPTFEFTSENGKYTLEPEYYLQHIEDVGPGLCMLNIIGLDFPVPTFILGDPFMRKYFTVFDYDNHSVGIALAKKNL

`CCCCNC(=O)CC(O)C(Cc1ccccc1)NC(=O)C(NC(=O)COc1ccc2ccccc2c1)c1ccccc1` (stereo not given): the Ki in experiment [1] worked out at 5800 nM; in experiment [2] it was 110 nM.
With `CC1C(=O)c2nc(CCCN3N=C(c4ccccc4)CCC3=O)[nH]c2N(C)C1=O` (stereo not given), affinity in experiment [3] was put at a Ki of 10800 nM.
`CCC(C)C(NC(=O)CN1CCC(C(N)=O)(c2ccccc2)CC1)C(=O)NC(CC(C)C)C(O)CC(=O)NCCCc1ccccc1` (stereo not given): the results for the Ki in experiment [1] and in experiment [2] were 600 nM and 3900 nM, respectively.
Take `CCCCNC(=O)CC(O)C(Cc1ccccc1)NC(=O)C(CC(C)C)NC(=O)COc1ccc2ccccc2c1` (stereo not given): the inhibitory constant (Ki) in experiment [1] came to 5600 nM; in experiment [2], 920 nM.
In experiment [3], `CCCC1C(=O)c2nc(CCN3N=C(Cl)CCC3=O)[nH]c2N(C)C1=O` (stereo not given) showed an inhibition constant Ki of 470 nM.
The same measure, in the same setting: the figure for `CC1C(=O)c2nc(CCN3N=C(c4ccccc4)CCC3=O)[nH]c2N(C)C1=O` (stereo not given) is 6100 nM.
In the case of `CCCCNC(=O)CC(O)C(Cc1ccccc1)NC(=O)C(Cc1ccccc1)NC(=O)COc1ccc2ccccc2c1` (stereo not given), the Ki is 12000 nM in experiment [1] and 1300 nM in experiment [2].
In the case of `CC1C(=O)c2nc(CCCN3N=C(Cl)CCC3=O)[nH]c2N(C)C1=O` (stereo not given), the Ki in experiment [3] came out at 8800 nM.
Consider `CC1C(=O)c2nc(CCCCN3N=C(Cl)CCC3=O)[nH]c2N(C)C1=O` (stereo not given), for which affinity in experiment [3] was put at a Ki of 370 nM.
As for `CCCCNC(=O)CC(O)C(CC(C)C)NC(=O)C(CCC(N)=O)NC(=O)COc1ccc2ccccc2c1` (stereo not given), the figures for the Ki in experiment [1] and in experiment [2] were > 30000 nM and 200 nM, respectively.
`CCCCNC(=O)CC(O)C(Cc1ccccc1)NC(=O)[C@@H](NC(=O)c1ccc(CN2CCCC2)cc1)[C@@H](C)CC` (stereo not given in full): affinity in experiment [2] was put at a Ki of 1200 nM.
Take `CCCC1C(=O)c2nc(CCCCN3N=C(c4ccccc4)CCC3=O)[nH]c2N(C)C1=O` (stereo not given): the Ki in experiment [3] came out at 380 nM.
Regarding `CCCCNC(=O)CC(O)C(Cc1ccccc1)NC(=O)C(NC(=O)Cc1ccc2ccccc2c1)C(C)CC` (stereo not given), the Ki in experiment [1] is 50 nM; in experiment [2], 320 nM.
In experiment [3], `CCCC1C(=O)c2nc(CCCN3N=C(Cl)CCC3=O)[nH]c2N(C)C1=O` (stereo not given) returned a Ki of 1200 nM.
Turning to `CCCCNC(=O)CC(O)C(CC(C)C)NC(=O)C(NC(=O)CN1CCC(C(N)=O)(c2ccccc2)CC1)C(C)CC` (stereo not given), the Ki worked out at 410 nM in experiment [1] and 5500 nM in experiment [2].
Regarding `CCCC1C(=O)c2nc(CCN3N=C(c4ccccc4)CCC3=O)[nH]c2N(C)C1=O` (stereo not given), affinity in experiment [3] was put at a Ki of 760 nM.
Same read-out and setting: the figure for `CC1C(=O)c2nc(CN3N=C(Cl)CCC3=O)[nH]c2N(C)C1=O` (stereo not given) is > 100000 nM; for `CC1C(=O)c2nc(CCCN3N=CCCC3=O)[nH]c2N(C)C1=O` (stereo not given) it is 12700 nM.
On to `CCCCNC(=O)CC(O)C(CC(C)C)NC(=O)C(NC(=O)Cc1cc(OC)ccc1C)C(C)CC` (stereo not given), for which the inhibitory constant (Ki) in experiment [1] turned out to be 220 nM; in experiment [2], 2400 nM.
The molecule `CCCC1C(=O)c2nc(CN3N=C(c4ccccc4)CCC3=O)[nH]c2N(C)C1=O` (stereo not given) came in with a Ki in experiment [3] of 2270 nM.
Same read-out and setting: the figure for `CC1C(=O)c2nc(CCN3N=C(Cl)CCC3=O)[nH]c2N(C)C1=O` (stereo not given) is 14700 nM; for `CCCC1C(=O)c2nc(CCCN3N=C(c4ccccc4)CCC3=O)[nH]c2N(C)C1=O` (stereo not given) it is 810 nM; for `CC1C(=O)c2nc(CCCCN3N=C(c4ccccc4)CCC3=O)[nH]c2N(C)C1=O` (stereo not given) it is 2120 nM.
`CCCC1C(=O)c2nc(CCCCN3N=C(Cl)CCC3=O)[nH]c2N(C)C1=O` (stereo not given) gave a Ki in experiment [3] of 190 nM.
Turning to `CCCC1C(=O)c2nc(CN3N=C(Cl)CCC3=O)[nH]c2N(C)C1=O` (stereo not given), the inhibitory constant (Ki) in experiment [3] worked out at 9200 nM.
As to `CCCCNC(=O)CC(O)C(CC(C)C)NC(=O)C(NC(=O)Cc1cc(OC)ccc1C)C(C)C` (stereo not given), the Ki in experiment [1] is 500 nM; in experiment [2] it was 1600 nM.
Regarding `CC1C(=O)c2nc(CCN3N=CCCC3=O)[nH]c2N(C)C1=O` (stereo not given), the Ki in experiment [3] is 12800 nM.
With `CCCCNC(=O)CC(O)C(CC(C)C)NC(=O)C(NC(=O)Cc1ccc2ccccc2c1)C(C)CC` (stereo not given), the Ki in experiment [1] was determined as 90 nM; in experiment [2], 50 nM.
Taken in the same sequence, the figures for `CCCCNC(=O)CC(O)C(CC(C)C)NC(=O)C(NC(=O)COc1ccc2ccccc2c1)c1ccccc1` (stereo not given) were 560 nM and 200 nM.
Regarding `CC1C(=O)c2nc(CN3N=C(c4ccccc4)CCC3=O)[nH]c2N(C)C1=O` (stereo not given), the inhibitory constant (Ki) in experiment [3] stood at 53800 nM.
Consider `CCCCNC(=O)CC(O)C(CC(C)C)NC(=O)C(NC(=O)Cc1cc(OC)ccc1C)c1ccccc1` (stereo not given), for which the Ki in experiment [1] came to 590 nM; in experiment [2], 2100 nM.
For `CCCCNC(=O)C[C@H](O)[C@H](Cc1ccccc1)NC(=O)[C@@H](NC(=O)COc1ccc2ccccc2c1)C(C)CC` (stereo not given in full), in that order: 110 nM and 560 nM.
